Weight dissolved data for two compounds are collected here from US11951169B2, “Pharmaceutical preparation with curcuminoids nanoparticles and a method for producing the same” (AASTAR PTE LTD, priority 2019, dated 2024).

The nature of the series: Dissolution test (USP apparatus Type II paddles) of capsules containing the gel liquid, HPLC analysis. Type of series: physicochemical. The conditions noted are these: capsule. The protocol:
An Agilent 1260 Infinity HPLC system consists of a G1330B thermostat, a G1329B auto-injector, a G13150 diode array detector, a G1322A degasser and a high-pressure binary pump. Signal/Noise ratio of the chromatogram generated from this HPLC was used for qualitative and quantitative analyses in this study. The column used was an Angilent Poroshell 120 EC-C18 ([…], 2.7 am). The HPLC was run for 10 minutes at a column temperature of 35° C. under a flow rate of 0.3 ml/min with injection volume being 5 μl. The detection spectrum was set at 426 nm using an elusion medium comprising acetonitrile and 0.1% of aqueous formic acid in a volume ratio of 1:2.
2.0 g of NaCl and 7 ml of HCl were dissolved in 1 L of ultrapure water. The pH was adjusted to 1.2, by using 2M NaOH. 13.121 g of Na2HPO4 were dissolved in 1 L of ultrapure water. The pH was adjusted to 6.8.
A Vankel Varain VK 70000 Dissolution System consisting of VK7000 dissolution system, VK 750D heating circulator, system monitor, 6 Vankel vessels and apparatus Type II paddles, was used in the preparation of a dissolution sample from capsules containing the gel liquid.
The dissolution test was performed in compliance with United States Pharmacopoeia using apparatus Type II paddles. […] 6 capsules were added into 6 vessels respectively. […] 2 μl of the filtrate was injected into the HPLC system for analysis.
Further, 250 ml of pH 6.8 solution was added to the same vessel at 45 minutes and the pH was adjusted to 6.8 using 2M NaOH within 5 minutes. 1-2 ml of the dissolution sample was then collected after 60 minutes, 75 minutes and 120 minutes followed by filtering through a 0.45 μm membrane immediately. 2 μl of the filtrate was injected into the HPLC system for analysis.

As for `COc1cc(/C=C/C(=O)CC(=O)/C=C/c2ccc(O)c(OC)c2)ccc1O` [Curcumin, curcumin], the Weight dissolved reads like this: (pH 1.2, 10 min) 590 ± 78 µg; (pH 1.2, 15 min) 4250 ± 686 µg; (pH 1.2, 30 min) 18908 ± 1819 µg; (pH 6.8, 45 min) 24155 ± 1397 µg; (pH 6.8, 60 min) 23746 ± 1347 µg; (pH 6.8, 75 min) 23497 ± 1859 µg. This compound also returned a Weight dissolved (pH 6.8, 120 min) of 23937 ± 1826 µg.

Regarding `COc1cc(/C=C/C(=O)CC(=O)/C=C/c2ccc(O)cc2)ccc1O` [DMC, demthoxycurcumin], the Weight dissolved (pH 1.2, 15 min) is 195 ± 22 µg; the Weight dissolved (pH 1.2, 30 min) was determined as 831 ± 87 µg; the Weight dissolved (pH 6.8, 45 min) was 745 ± 48 µg; the Weight dissolved (pH 6.8, 60 min) turned out to be 747 ± 45 µg; the Weight dissolved (pH 6.8, 75 min) was 739 ± 68 µg; the Weight dissolved (pH 6.8, 120 min) amounted to 763 ± 69 µg.
